#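 Step 1: Grow cells in 96-well plates. Step 2: Expose to compound for 48 hours at 5 concentrations. Step 3: Interpolate endpoints linearly; if unreached, use highest concentration. TGI: total growth inhibition.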
# Legend:
# Test in all cases: growth of human tumour cells (NCI), 48 h
# SF-295 CNS = test system: SF-295 CNS
# SF-539 CNS = test system: SF-539 CNS
# SNB-75 CNS = test system: SNB-75 CNS
# DU-145 prostate = test system: DU-145 prostate
# LXFL 529 NSCLC = test system: LXFL 529 NSCLC
# A549 NSCLC = test system: A549 NSCLC
# CAKI-1 renal = test system: CAKI-1 renal
# M19-MEL melanoma = test system: M19-MEL melanoma
# DMS 273 small cell lung = test system: DMS 273 small cell lung
# XF 498 CNS = test system: XF 498 CNS
# HOP-62 NSCLC = test system: HOP-62 NSCLC
# UACC-257 melanoma = test system: UACC-257 melanoma
# RPMI-8226 leukemia = test system: RPMI-8226 leukemia
# RXF 393 renal = test system: RXF 393 renal
# IGROV1 ovarian = test system: IGROV1 ovarian
# CCRF-CEM leukemia = test system: CCRF-CEM leukemia
# HCT-116 colon = test system: HCT-116 colon
# MDA-MB-435 = test system: MDA-MB-435
# COLO 205 colon = test system: COLO 205 colon
# EKVX NSCLC = test system: EKVX NSCLC
# KM12 colon = test system: KM12 colon
# OVCAR-4 ovarian = test system: OVCAR-4 ovarian
# UACC-62 melanoma = test system: UACC-62 melanoma
# NCI-H226 lung = test system: NCI-H226 lung
# NCI-H522 lung = test system: NCI-H522 lung
# DLD-1 colon = test system: DLD-1 colon
# HOP-92 NSCLC = test system: HOP-92 NSCLC
# M14 melanoma = test system: M14 melanoma
# T-47D breast = test system: T-47D breast
# 786-0 renal = test system: 786-0 renal
# PC-3 prostate = test system: PC-3 prostate
# UO-31 renal = test system: UO-31 renal
# BT-549 breast = test system: BT-549 breast
# HCC-2998 colon = test system: HCC-2998 colon
# ACHN renal = test system: ACHN renal
# K-562 leukemia = test system: K-562 leukemia
# OVCAR-3 ovarian = test system: OVCAR-3 ovarian
# SR leukemia = test system: SR leukemia
# SK-MEL-2 melanoma = test system: SK-MEL-2 melanoma
# MDA-N = test system: MDA-N
# MDA-MB-231 breast = test system: MDA-MB-231 breast
# SK-MEL-5 melanoma = test system: SK-MEL-5 melanoma
# TK-10 renal = test system: TK-10 renal
# MOLT-4 leukemia = test system: MOLT-4 leukemia
# SNB-78 CNS = test system: SNB-78 CNS
# SF-268 CNS = test system: SF-268 CNS
# HT29 colon = test system: HT29 colon
# HCT-15 colon = test system: HCT-15 colon
# OVCAR-5 ovarian = test system: OVCAR-5 ovarian
# A498 renal = test system: A498 renal
# NCI-H23 lung = test system: NCI-H23 lung
# HS 578T breast = test system: HS 578T breast
# SK-OV-3 ovarian = test system: SK-OV-3 ovarian
# OVCAR-8 ovarian = test system: OVCAR-8 ovarian
# SNB-19 CNS = test system: SNB-19 CNS
# MALME-3M melanoma = test system: MALME-3M melanoma
# U251 CNS = test system: U251 CNS
# NCI/ADR-RES ovarian = test system: NCI/ADR-RES ovarian
# KM20L2 colon = test system: KM20L2 colon
# LOX IMVI melanoma = test system: LOX IMVI melanoma
# DMS 114 small cell lung = test system: DMS 114 small cell lung
# SW-620 colon = test system: SW-620 colon
# SN12C renal = test system: SN12C renal
# HOP-18 NSCLC = test system: HOP-18 NSCLC
# NCI-H460 lung = test system: NCI-H460 lung
# HL-60(TB) leukemia = test system: HL-60(TB) leukemia
# MCF7 breast = test system: MCF7 breast
# SK-MEL-28 melanoma = test system: SK-MEL-28 melanoma
# RXF-631 renal = test system: RXF-631 renal
smiles,measurement,setting,value
Cc1nc(Nc2ccc(Cl)c(Cl)c2)sc1C(/C=C/c1ccc2c(c1)OCO2)=N/Nc1ccc([N+](=O)[O-])cc1[N+](=O)[O-],TGI,SF-295 CNS,> 100 µM
same,TGI,SF-539 CNS,> 91.6 µM
same,TGI,SNB-75 CNS,32.8 µM
same,TGI,DU-145 prostate,> 100 µM
same,TGI,LXFL 529 NSCLC,> 100 µM
same,TGI,A549 NSCLC,> 100 µM
same,TGI,CAKI-1 renal,> 46.4 µM
same,TGI,M19-MEL melanoma,> 100 µM
same,TGI,DMS 273 small cell lung,> 100 µM
same,TGI,XF 498 CNS,> 48.8 µM
same,TGI,HOP-62 NSCLC,> 84 µM
same,TGI,UACC-257 melanoma,> 100 µM
same,TGI,RPMI-8226 leukemia,> 100 µM
same,TGI,RXF 393 renal,67.2 µM
same,TGI,IGROV1 ovarian,> 100 µM
same,TGI,CCRF-CEM leukemia,> 100 µM
same,TGI,HCT-116 colon,> 100 µM
same,TGI,MDA-MB-435,> 100 µM
same,TGI,COLO 205 colon,> 100 µM
same,TGI,EKVX NSCLC,> 100 µM
same,TGI,KM12 colon,> 100 µM
same,TGI,OVCAR-4 ovarian,> 100 µM
same,TGI,UACC-62 melanoma,> 88 µM
same,TGI,NCI-H226 lung,> 100 µM
same,TGI,NCI-H522 lung,> 100 µM
same,TGI,DLD-1 colon,> 100 µM
same,TGI,HOP-92 NSCLC,> 100 µM
same,TGI,M14 melanoma,> 100 µM
same,TGI,T-47D breast,> 100 µM
same,TGI,786-0 renal,> 100 µM
same,TGI,PC-3 prostate,> 100 µM
same,TGI,UO-31 renal,> 100 µM
same,TGI,BT-549 breast,> 100 µM
same,TGI,HCC-2998 colon,> 100 µM
same,TGI,ACHN renal,> 100 µM
same,TGI,K-562 leukemia,> 100 µM
same,TGI,OVCAR-3 ovarian,> 100 µM
same,TGI,SR leukemia,> 100 µM
same,TGI,SK-MEL-2 melanoma,> 100 µM
same,TGI,MDA-N,> 100 µM
same,TGI,MDA-MB-231 breast,> 100 µM
same,TGI,SK-MEL-5 melanoma,> 100 µM
same,TGI,TK-10 renal,> 94.4 µM
same,TGI,MOLT-4 leukemia,> 56.2 µM
same,TGI,SNB-78 CNS,25.9 µM
same,TGI,SF-268 CNS,> 100 µM
same,TGI,HT29 colon,> 100 µM
same,TGI,HCT-15 colon,> 100 µM
same,TGI,OVCAR-5 ovarian,> 100 µM
same,TGI,A498 renal,> 100 µM
same,TGI,NCI-H23 lung,> 100 µM
same,TGI,HS 578T breast,> 100 µM
same,TGI,SK-OV-3 ovarian,> 100 µM
same,TGI,OVCAR-8 ovarian,> 100 µM
same,TGI,SNB-19 CNS,> 100 µM
same,TGI,MALME-3M melanoma,> 100 µM
same,TGI,U251 CNS,> 100 µM
same,TGI,NCI/ADR-RES ovarian,> 100 µM
same,TGI,KM20L2 colon,> 100 µM
same,TGI,LOX IMVI melanoma,> 100 µM
same,TGI,DMS 114 small cell lung,> 100 µM
same,TGI,SW-620 colon,> 100 µM
same,TGI,SN12C renal,> 100 µM
same,TGI,HOP-18 NSCLC,> 100 µM
same,TGI,NCI-H460 lung,> 100 µM
same,TGI,HL-60(TB) leukemia,> 100 µM
same,TGI,MCF7 breast,> 100 µM
same,TGI,SK-MEL-28 melanoma,> 100 µM
Cc1c(C(=O)/C=C/c2ccc3c(c2)OCO3)[n+](=O)c2ccccc2n1[O-],TGI,SF-295 CNS,95.7 µM
same,TGI,SF-539 CNS,49.3 µM
same,TGI,SNB-75 CNS,68.6 µM
same,TGI,LXFL 529 NSCLC,61.9 µM
same,TGI,A549 NSCLC,> 100 µM
same,TGI,CAKI-1 renal,85.7 µM
same,TGI,M19-MEL melanoma,> 100 µM
same,TGI,DMS 273 small cell lung,52.6 µM
same,TGI,XF 498 CNS,92.8 µM
same,TGI,HOP-62 NSCLC,> 100 µM
same,TGI,UACC-257 melanoma,> 100 µM
same,TGI,RPMI-8226 leukemia,69.3 µM
same,TGI,RXF 393 renal,54.1 µM
same,TGI,IGROV1 ovarian,> 100 µM
same,TGI,CCRF-CEM leukemia,> 100 µM
same,TGI,HCT-116 colon,75.1 µM
same,TGI,COLO 205 colon,78.7 µM
same,TGI,EKVX NSCLC,69.3 µM
same,TGI,KM12 colon,90.5 µM
same,TGI,OVCAR-4 ovarian,> 100 µM
same,TGI,UACC-62 melanoma,75.2 µM
same,TGI,NCI-H226 lung,60.9 µM
same,TGI,NCI-H522 lung,36.9 µM
same,TGI,DLD-1 colon,> 100 µM
same,TGI,HOP-92 NSCLC,69.7 µM
same,TGI,M14 melanoma,> 100 µM
same,TGI,786-0 renal,> 100 µM
same,TGI,UO-31 renal,97.4 µM
same,TGI,HCC-2998 colon,57.5 µM
same,TGI,ACHN renal,> 100 µM
same,TGI,K-562 leukemia,> 100 µM
same,TGI,OVCAR-3 ovarian,83.3 µM
same,TGI,SR leukemia,> 100 µM
same,TGI,TK-10 renal,80.6 µM
same,TGI,MOLT-4 leukemia,73.9 µM
same,TGI,SNB-78 CNS,> 100 µM
same,TGI,SF-268 CNS,> 100 µM
same,TGI,HT29 colon,56.4 µM
same,TGI,OVCAR-5 ovarian,74.3 µM
same,TGI,A498 renal,64 µM
same,TGI,NCI-H23 lung,42.4 µM
same,TGI,SK-OV-3 ovarian,51.2 µM
same,TGI,RXF-631 renal,> 100 µM
same,TGI,OVCAR-8 ovarian,62.9 µM
same,TGI,SNB-19 CNS,> 100 µM
same,TGI,MALME-3M melanoma,> 100 µM
same,TGI,U251 CNS,> 100 µM
same,TGI,KM20L2 colon,48.3 µM
same,TGI,LOX IMVI melanoma,66.3 µM
same,TGI,DMS 114 small cell lung,48.8 µM
same,TGI,SW-620 colon,> 100 µM
same,TGI,SN12C renal,> 100 µM
same,TGI,HOP-18 NSCLC,> 100 µM
same,TGI,NCI-H460 lung,75.6 µM
same,TGI,HL-60(TB) leukemia,> 100 µM
same,TGI,SK-MEL-28 melanoma,> 100 µM

# From PubChem BioAssay (NCI)
